# Data reported in patent US5389621A, “Method of enhancing the anticoagulant effects of aspirin using salicylamide” (University of Medicine and Dentistry of New Jersey, priority 1994, dated 1995).
# Like-named read-outs stand apart in the source and are kept apart here.
# Legend:
# [1] = cited from earlier work; for Absorption (ASA) / bioavailability (SAM) from oral solution vs solid forms: oral solutions vs tablets or suspensions
# [2] = system: lyso-PAF:acetyl-CoA acetyltransferase; conditions: cited from earlier work
# vascular cyclooxygenase = assay: 6-keto PG F1alpha production from thoracic aortic rings ex vivo; assay type: in vivo, male Sprague-Dawley rats; conditions: for Inhibition of PG I2 (6-keto PG F1alpha) / vascular cyclooxygenase: ASA 10 mg/kg or SAM 9 mg/kg, rat thoracic aortic rings ex vivo
# Procedure: The method used was a modification of that used by Dejana et al. (1981). Male Sprague-Dawley rats were randomly treated with either ASA (10 mg/kg), SAM (9 mg/kg), ASA/SAM (10/9 mg/kg), or isotonic saline. The rats were fasted overnight before administration of the treatments. Half an hour following treatment, the rats were exsanguinated by heart puncture under ether anesthesia and the thoracic aorta was immediately isolated, cleaned of adventitia, and flushed in situ with 5 ml of isotonic saline. The vessel was then removed and 2 rings (each was nearly 7 mg wet weight corresponding to 0.5 cm length) were cut from the middle part. The rings were immediately incubated in 160 μl of Krebs-Hanseleit buffer solution adjusted to pH 7.4 and containing AA (final concentration 4.3 mM) in polyethylene tubes. The tubes were incubated at 37° C. in a shaking water bath for 10 minutes. The reaction was terminated by the addition of 40 μl of EDTA/ASA solution and the tubes were centrifuged at 1800× g for 15 minutes at 4° C. 100 μl of the supernatant were used for the measurement of 6-keto PG F1alpha content as an indicator of its unstable precursor, PG I2. A specific radioimmunoassay (Amersham International) (vide infra) was employed.
# Radioimmunoassay Procedure for Measurement of Thromboxane B2 and 6-keto PG F1alpha
# The procedure described below is for thromboxane A2. A similar procedure was used for 6-keto PG F1alpha measurement.
# One way ANOVA followed by Scheffe multiple range test was employed for treatment comparisons. The accepted level of significance was p<0.05.
# lipooxygenase pathway = conditions: cited from earlier work
# [3] = oral, rats; cited from earlier work
# [4] = Acid-hydrolyzed fraction of SA in liver, kidney and plasma after 14C-aspirin; conditions: low or high dose combinations
# Procedure: (§1) Forty-eight rats were divided into two groups. The first group of rats was administered ASA, SAM or their combination in a dose approximately equal (w/w) to that in the commercially available combinations, e.g., BC® formula, when administered to humans, i.e., 10 and 3 mg/kg of ASA and SAM, respectively. The second group was administered double the dosage received by the first group.
# For each sample to be analyzed, 2 aliquots each of 300 mg of tissue (liver or kidney) or 100 μl of plasma, were placed in polyethylene wide-pore tubes (Fisherbrand) along with 0.5 ml of physiological saline. The tissues were homogenized using an electrical homogenizer (Polytron, Brinkmann Instruments, Westbury, N.Y.) on high speed for 2 minutes for each sample. The tubes were dipped in ice during this procedure to minimize any loss of SA by sublimation from the heat generated by the high speed of the homogenization.
# The homogenates were transferred by pipette to pyrex screw-top test tubes and the tubes were then divided into 2 groups: […]
# The supernatants were filtered through disposable 0.45 μm Acrodisc filters and 100 μl were injected onto HPLC. […] The radioactivity in the vials was measured by Beckman LS scintillation counter and the difference in radioactivity between the control vials and the acidhydrolyzed ones was indicative of SA conjugates as well as part of the protein-bound SA in the tissue samples. […]
# cyclooxygenase = conditions: in vitro, cited from earlier work
# [5] = Tightly protein-bound 14C radioactivity after 14C-aspirin; assay type: in vivo, male Sprague-Dawley rats
# Procedure: as §1
# The rats were anesthetized by light diethyl ether inhalation. A blood sample of nearly 3 ml was collected by cardiac puncture 1.5 hours after oral administration. The blood was transferred to chilled polyethylene tubes containing 30 μl of 50% (w/w) potassium fluoride to prevent hydrolysis of ASA. A 300 μl aliquot was pipetted in a scintillation vial to study the distribution in whole blood. The rest of the collected blood was immediately centrifuged at 1800×g for 10 minutes at 4° C. and the plasma was decanted. 100 μl of the plasma were pipetted in a scintillation vial for measurement of the total radioactivity and the rest of the plasma was stored immediately at -70° C. for later study of the distribution of the metabolites.
# The plasma tightly protein-bound activity was measured by adding 100 μl of 10% trichloroacetic acid (TCA) to 100 μl of plasma in microcentrifuge tubes and vortexing the contents for 1 minute followed by centrifugation at 1800×g for 10 minutes. The supernatant was decanted and the tubes with the pellets in them were placed in scintillation vials each containing 15 ml of Aquasol-2 scintillation fluid. […] The radioactivity in the scintillation vials was counted in Beckman LS counter.
# [6] = cited from earlier work
# [7] = 1.5 hr, oral 14C-ASA 10 mg/kg, alone or with SAM 3 mg/kg
# [8] = 1.5 hr, oral 14C-ASA 20 mg/kg, alone or with SAM 6 mg/kg
compound,measurement,setting,value
"CC(=O)Oc1ccccc1C(=O)O [ASA, acetylsalicylic acid]",Apparent volume of distribution,[1]; children,0.12 to 0.14 L/kg
same,Fraction reaching the peripheral circulation intact,"[1]; oral aspirin, man",about 68%
same,Time of peak plasma concentration,"[1]; oral soluble aspirin preparation, humans",15 to 25 min
same,Absorption (ASA) / bioavailability (SAM) from oral solution vs solid forms,[1],superior
same,Absorption,"[1]; oral, stomach and upper small intestine",rapidly and usually completely absorbed
same,Effect on lyso-PAF:acetyl-CoA acetyltransferase,[2],inhibitory effect
same,Inhibition of PG I2 (6-keto PG F1alpha) / vascular cyclooxygenase,vascular cyclooxygenase,inhibited PG I2
same,Effect on the lipooxygenase pathway,lipooxygenase pathway,reversibly block the lipooxygenase pathway
same,Intestinal and hepatic extraction and/or metabolism of oral dose,[3],More than 60%
"NC(=O)c1ccccc1O [SAM, Salicylamide]",Change of acid-hydrolyzed SA fraction in liver,[4],did not affect
same,Effect on cyclooxygenase,cyclooxygenase,no effect in vitro on cyclooxygenase
same,Effect on cyclooxygenase,cyclooxygenase; listed as salicylamide,does not have a demonstrable effect on the cyclooxygenase pathway in vitro
same,Absorption (ASA) / bioavailability (SAM) from oral solution vs solid forms,[1],superior
same,Inhibition of PG I2 (6-keto PG F1alpha) / vascular cyclooxygenase,vascular cyclooxygenase,"partially, but still significantly, block vascular cyclooxygenase activity"
same,Potentiation of ASA inhibitory effect on vascular cyclooxygenase,"vascular cyclooxygenase; SAM with ASA, ex vivo",significant potentiation
same,"Change of tightly protein-bound 14C, high dose",[5]; 14C-ASA with SAM 20/6 mg/kg,did not reach significant levels
same,Change of tightly protein-bound 14C in kidney,[5]; low and high doses,not influenced
same,Biliary excretion,[6]; in vivo,negligible
same,Bound to plasma proteins,[6]; in vivo,About 50%
same,Hydrolysis in vivo to a salicylate,[6]; in vivo,not hydrolyzed in vivo to form a salicylate
same,First-pass metabolism of the administered dose,[6]; oral,up to 70%
CC(=O)Oc1ccccc1[14C](=O)O [^14 C-ASA],Tightly protein-bound 14C in heart,[5]; [7],2.30 ± 0.28 μg ^14 C/gm tissue
same,Tightly protein-bound 14C in kidney,[5]; [7],3.85 ± 0.30 μg ^14 C/gm tissue
same,Tightly protein-bound 14C in liver,[5]; [7],3.93 ± 0.04 μg ^14 C/gm tissue
same,Tightly protein-bound 14C in lung,[5]; [7],1.62 ± 0.14 μg ^14 C/gm tissue
same,Tightly protein-bound 14C in plasma,[5]; [7],26.95 ± 2.67 μg ^14 C/ml plasma
same,Tightly protein-bound 14C in heart,[5]; [8],5.79 ± 0.40 μg ^14 C/gm tissue
same,Tightly protein-bound 14C in kidney,[5]; [8],11.66 ± 0.29 μg ^14 C/gm tissue
same,Tightly protein-bound 14C in liver,[5]; [8],9.81 ± 0.12 μg ^14 C/gm tissue
same,Tightly protein-bound 14C in lung,[5]; [8],5.84 ± 0.40 μg ^14 C/gm tissue
